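96-well plates; 48 h exposure; 5 concentrations. Endpoints by linear interpolation between flanking doses. Not reached: highest tested concentration assigned. TGI: concentration producing complete growth inhibition.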
Experiments:
Experiment in all cases: growth of human tumour cells (NCI), 48 h
NCI-H460 lung = test system: NCI-H460 lung
KM12 colon = test system: KM12 colon
M14 melanoma = test system: M14 melanoma
CAKI-1 renal = test system: CAKI-1 renal
TK-10 renal = test system: TK-10 renal
SW-620 colon = test system: SW-620 colon
NCI-H522 lung = test system: NCI-H522 lung
NCI-H226 lung = test system: NCI-H226 lung
OVCAR-4 ovarian = test system: OVCAR-4 ovarian
DU-145 prostate = test system: DU-145 prostate
SF-268 CNS = test system: SF-268 CNS
OVCAR-3 ovarian = test system: OVCAR-3 ovarian
NCI/ADR-RES ovarian = test system: NCI/ADR-RES ovarian
HOP-62 NSCLC = test system: HOP-62 NSCLC
COLO 205 colon = test system: COLO 205 colon
HL-60(TB) leukemia = test system: HL-60(TB) leukemia
ACHN renal = test system: ACHN renal
UACC-257 melanoma = test system: UACC-257 melanoma
UO-31 renal = test system: UO-31 renal
T-47D breast = test system: T-47D breast
A549 NSCLC = test system: A549 NSCLC
HCT-15 colon = test system: HCT-15 colon
786-0 renal = test system: 786-0 renal
SK-MEL-5 melanoma = test system: SK-MEL-5 melanoma
RXF 393 renal = test system: RXF 393 renal
U251 CNS = test system: U251 CNS
MALME-3M melanoma = test system: MALME-3M melanoma
HS 578T breast = test system: HS 578T breast
SNB-19 CNS = test system: SNB-19 CNS
SNB-75 CNS = test system: SNB-75 CNS
SR leukemia = test system: SR leukemia
K-562 leukemia = test system: K-562 leukemia
IGROV1 ovarian = test system: IGROV1 ovarian
HT29 colon = test system: HT29 colon
MCF7 breast = test system: MCF7 breast
A498 renal = test system: A498 renal
MOLT-4 leukemia = test system: MOLT-4 leukemia
HOP-92 NSCLC = test system: HOP-92 NSCLC
SF-295 CNS = test system: SF-295 CNS
OVCAR-8 ovarian = test system: OVCAR-8 ovarian
PC-3 prostate = test system: PC-3 prostate
CCRF-CEM leukemia = test system: CCRF-CEM leukemia
SK-MEL-28 melanoma = test system: SK-MEL-28 melanoma
HCT-116 colon = test system: HCT-116 colon
LOX IMVI melanoma = test system: LOX IMVI melanoma
OVCAR-5 ovarian = test system: OVCAR-5 ovarian
SF-539 CNS = test system: SF-539 CNS
MDA-MB-231 breast = test system: MDA-MB-231 breast
HCC-2998 colon = test system: HCC-2998 colon
MDA-N = test system: MDA-N
MDA-MB-435 = test system: MDA-MB-435
EKVX NSCLC = test system: EKVX NSCLC
RPMI-8226 leukemia = test system: RPMI-8226 leukemia
SN12C renal = test system: SN12C renal
BT-549 breast = test system: BT-549 breast
NCI-H23 lung = test system: NCI-H23 lung
KM20L2 colon = test system: KM20L2 colon
SK-MEL-2 melanoma = test system: SK-MEL-2 melanoma
SK-OV-3 ovarian = test system: SK-OV-3 ovarian
UACC-62 melanoma = test system: UACC-62 melanoma

Measured: TGI

CCOc1c(OC)cc(CNNc2nccs2)cc1OC
92.7 µM: SK-MEL-5 melanoma
not listed: KM20L2 colon | SK-MEL-2 melanoma | SK-OV-3 ovarian | UACC-62 melanoma
> 100 µM: all other assays above

CCCCCC(=O)OC[n+]1ccc2c(C)c3[nH]c4ccccc4c3c(C)c2c1
29.8 µM: SK-MEL-2 melanoma
15.4 µM: TK-10 renal
1.78 µM: RPMI-8226 leukemia
7.75 µM: CAKI-1 renal
2.75 µM: KM20L2 colon | OVCAR-5 ovarian
2.67 µM: A498 renal
4.14 µM: HOP-62 NSCLC
11.1 µM: ACHN renal
> 100 µM: HL-60(TB) leukemia | HOP-92 NSCLC
8.26 µM: MOLT-4 leukemia
5.13 µM: SK-OV-3 ovarian
13 µM: UO-31 renal
12 µM: SR leukemia
38.6 µM: IGROV1 ovarian

CN1CCN(c2nc3c(c(=O)n(C)c(=O)n3C)n2C)CC1
not listed: MOLT-4 leukemia | SF-539 CNS | KM20L2 colon
> 100 µM: all other assays above

CC(C)NC(=O)OCc1c(COC(=O)NC(C)C)c(-c2ccc[n+](COC(=O)C3CCCCC3)c2)n2c1CCC2
87.4 µM: UACC-62 melanoma
68.6 µM: CAKI-1 renal
58 µM: NCI-H522 lung
87.5 µM: A498 renal
not listed: KM20L2 colon
> 100 µM: all other assays above

— PubChem BioAssay (NCI)
